Patent US9045398B2, “Sulfonium salt and photo-acid generator” (SAN-APRO LTD., priority 2013, dated 2015)

Assays:
[1] = Evaluation of light sensitivity: acid generation ratio after ArF excimer lamp exposure (Rhodamine B base colour reagent); format: physicochemical; conditions: 2.5 mM in acetonitrile with 2.5 mM Rhodamine B base; ArF excimer lamp 193 nm, 1.8 mW/cm^2, integrated amount of light 100 mJ/cm^2
Description: The photo-acid generators (A-1) to (A-10) of the present invention and the photo-acid generators (H-1) to (H-3) of comparative examples were each diluted with acetonitrile so that their molar concentrations would be 2.5 mM, and then Rhodamine B base (a color reagent for an acid, produced by Sigma-Aldrich) was added to the respective solutions so that the molar concentration would be 2.5 mM, yielding sample solutions.
A sample solution obtained above was put into a quartz cell having an optical path length of 1 cm and then was exposed to light under prescribed conditions using an ArF excimer lamp (center wavelength=193 nm). The absorbance near 556 nm of the respective sample solutions after exposure to light was measured with a spectrophotometer (UV-vis) because the photo-acid generator in a sample solution is decomposed upon exposure to light to generate an acid, which then reacts with Rhodamine B base and, as a result, the absorbance near 556 nm increases. Based on the absorbance at 556 nm, the molar concentration of the acid in the sample solution after exposure to light was determined using a calibration curve (standard substance: p-toluenesulfonic acid). From the acid concentration determined and the initial concentration of the photo-acid generator, the acid generation ratio was determined by the following calculation.
The acid generation ratio determined by the above-mentioned operations was judged according to the following criteria. The results are shown in Table 2. • A: 55% or more • C: less than 55% • (Light Exposure Conditions) • Photolithography machine: ArF excimer lamp (manufactured by USHIO INC.) • Illuminance (measured with a 193 nm head illuminometer): 1.8 mW/cm^2 • Integrated amount of light (measured with a 193 nm head illuminometer): 100 mJ/cm^2 <Evaluation of Solubility> (Measurement of Degree of Solubility)

[2] = Degree of solubility in propylene glycol monomethyl ether acetate (PGMEA); format: physicochemical; conditions: for Degree of solubility in PGMEA compared with Comparative Examples 1 to 3 (identical anion, different cation): versus Comparative Examples 1 to 3; for Degree of solubility (%): in propylene glycol monomethyl ether acetate (PGMEA)
Description: The degrees of solubility in propylene glycol monomethyl ether acetate (PGMEA) of the photo-acid generators (A-1) to (A-10) of the present invention and the photo-acid generators (H-1) to (H-3) of comparative examples were measured.
The degree of solubility determined by the above-mentioned operations was judged according to the following criteria. The results are shown in Table 2. • S: 30% or more • A: 5% or more but less than 30% • B: 1% or more but less than 5% • C: less than 1%

Structure (SMILES) | Acid generation ratio (%) [1] | Degree of solubility in PGMEA compared with Comparative Examples 1 to 3 (identical anion, different cation) [2] | Degree of solubility (%) [2]
FC(F)(F)c1cccc([S+](c2ccccc2)c2ccccc2)c1 [A-6, diphenyl-3-trifluoromethylphenylsulfonium trifluoromethane sulfonate] | A (55% or more) | higher | A (5% or more but less than 30%)
Fc1cccc([S+](c2ccccc2)c2ccccc2)c1 [A-3] | A (55% or more) | – | S (30% or more)
FC(F)(F)c1cccc([S+](c2ccccc2)c2ccccc2)c1 [A-8] | A (55% or more) | – | S (30% or more)
FC(F)(F)c1cccc([S+](c2ccccc2)c2ccccc2)c1 [A-9] | A (55% or more) | – | S (30% or more)
Fc1cccc([S+](c2ccccc2)c2ccccc2)c1 [A-4] | A (55% or more) | – | S (30% or more)
FC(F)(F)c1cccc([S+](c2ccccc2)c2ccccc2)c1 [A-7] | A (55% or more) | – | S (30% or more)
Fc1cccc([S+](c2ccccc2)c2ccccc2)c1 [A-2] | A (55% or more) | – | S (30% or more)
Fc1cccc([S+](c2ccccc2)c2ccccc2)c1 [A-1] | A (55% or more) | higher | A (5% or more but less than 30%)

Now from value to compound:

Acid generation ratio (%) [1] | Degree of solubility in PGMEA compared with Comparative Examples 1 to 3 (identical anion, different cation) [2] | Degree of solubility (%) [2] | Structure (SMILES)
C (less than 55%) | – | B (1% or more but less than 5%) | Fc1ccc([S+](c2ccccc2)c2ccccc2)cc1.O=S(=O)([O-])C(F)(F)F [H-3, (4-Fluorophenyl)diphenylsulfonium trifluoromethanesulfonate, reference compound]
A (55% or more) | – | C (less than 1%) | O=S(=O)([O-])C(F)(F)F.c1ccc([S+](c2ccccc2)c2ccccc2)cc1 [H-1, Triphenylsulfonium trifluoromethanesulfonate, reference compound]
C (less than 55%) | – | B (1% or more but less than 5%) | Cc1ccc([S+](c2ccccc2)c2ccccc2)cc1.O=S(=O)([O-])C(F)(F)F [H-2, (4-Methylphenyl)diphenylsulfonium trifluoromethanesulfonate, reference compound]
